The record followed here is patent US7906508B2, “3,4-dihydrobenzoxazine compounds and inhibitors of vanilloid receptor subtype 1 (VRI) activity” (Japan Tobacco Inc., priority 2005, dated 2011).

Series [1] in a line: Metabolic stability test in liver S9 (Test Example [2]). In kind it is in vitro ADME, human. Particulars: for Human liver S9 remaining ratio: human liver S9 2 mg protein/mL, 37° C., 60 minutes of incubation vs 0 minute. The procedure:
Human liver S9 (final concentration: 2 mg protein/mL) was suspended in 100 mM potassium phosphate buffer (at pH 7.4, which contained β-nicotinamide adenine dinucleotide phosphate: 1.3 mM, D-glucose-6-phosphate: 3.3 mM, magnesium chloride: 3.3 mM and glucose-6-phosphate dehydrogenase: 0.45 U/mL) and further mixed with the test compound dissolved in DMSO. The mixture was incubated at 37° C. for 0 and 60 minutes and then supplemented with acetonitrile containing formic acid (final concentration 0.1%). The test compound (uncharged) in a supernatant after centrifugation was measured using high-performance liquid chromatography/mass spectrometry (LC/MS). A remaining ratio (%) was calculated from the obtained measurement value according to the following equation: Remaining ratio (%)=(amount of test compound after 60 minutes of incubation/amount of test compound on 0 minute of incubation)×100

Series [2] relates to Caco2 cells. The experiment in a line: In-vitro membrane permeability test (Test Example [3]). In kind it is in vitro ADME. Particulars: summary judgement. The procedure:
(§1) 10 mM DMSO solution of the test compound was diluted with Hanks buffer (pH 6.5) to 25 μM to make a test compound solution. 300 μL of Apical buffer (Hanks buffer (pH 6.5)) and 1 mL of Basolateral buffer (4.5% BSA-containing Hanks buffer (pH 7.4)) were added to the apical side (mucosal side) and the basolateral side (serosal side), respectively, of Caco2 cells (cells cultured for 6 days after seeding) seeded onto a plate for permeability test (BIOCOAT HTS Caco2 Assay system: BD Biosciences), and preincubated at 37° C. for 20 minutes, followed by measurement of a transepithelial electrical resistance value. Each buffer on the apical side and basolateral side was removed by aspiration. Then, 300 μL of the test compound solution and 1 mL of Basolateral buffer were added to the apical side and the basolateral side, respectively, and incubated at 37° C. for 2 hours with stirring at 60 rpm. Then, sampling was performed from each of the apical side and the basolateral side, and the sample was supplemented with acetonitrile and centrifuged. The test compound (uncharged) in the supernatant was measured using high-performance liquid chromatography/tandem mass spectrometry (LC/MS/MS: Quantum, Thermo Quest).
(§2) A membrane permeability coefficient (Papp) was calculated according to the following equation: Papp(cm/sec.)=(dx/dt)/(A×C0)
(§3) (wherein dx is the amount of the test compound (uncharged) on the basolateral side after incubation, dt is an incubation time, A is the surface area of the cell membrane, and C0 is the initial concentration of the test compound on the apical side.)

Assay in series [3]: as above
Format: in vitro ADME. Particulars: human, Caco-2, Caco2 cells, 2 hours. The procedure:
as §1, §2, §3

Series [4] addresses T1, human VR1 (Homo sapiens, UniProt Q8NER1).
T1 construct: expressed in transfected cells
The experiment in a line: Inhibition of Ca2+ entry in cells caused by proton (Test Example [1]). In kind it is cell-based. Particulars: for IC50: rat glioma (C6BU1) cells stably expressing human VR1, proton stimulation, pH 5.7, Ca2+ uptake, Fura 2-AM, read-out: VRI Inhibition IC50. The method, then:
An inhibitory effect on VR1 activity was evaluated by measuring Ca^2+ uptake in cells.
Rat glioma (C6BU1) cells stably expressing human VR1 were suspended in 20 mM MES buffer (at pH 6.8, contg. 20 mM 2-morpholinoethanesulfonate (referred to as MES hereinafter), 115 mM NaCl, 5 mM KCl, 1 mM MgCl2 and 14 mM D-glucose) to make a cell density of 1×10^6 cells/mL. A fluorescent dye, Fura 2-AM solution (Dojindo Corporate, Cat. No. 343-05401) was added to the suspension to make a 5 μM concentration thereof. Further, Pluronic F-127 (Wako Pure Chemical Industries, Ltd., Cat. No. P6866) was added to make a 0.1% content thereof. Then, the suspension was incubated at 37° C. for 30 min. The cells were harvested and washed two times with 20 mM MES buffer. The cells were suspended again to make a cell density of 5×10^5 cells/mL. A 500-μL portion of the suspension was taken with a cuvette (MC MEDICAL, INC., Cat. No. SSR3121), to which 10 μL of 20 mM MES buffer containing 250 mM CaCl2 was added to incorporate Ca^2+ into the cells. At the same time, 5 μL of a test compound solution (in a range of 100 μM to 10 nM in DMSO) was also added to provide a final concentration thereof in a range of 1 μM to 0.1 nM. Alternatively, 5 μL of DMSO was added as control to provide a final concentration of 1% DMSO. The suspension was set in an intracellular ionometer (CAF-110; JASCO) 10 min after those additions. The cells were stimulated with protons by addition of 50 μL of 20 mM MES buffer at pH 1.1 to the suspension to set its pH at 5.7. The activity of the test compound was determined as a difference between the minimum of fluorescence intensity before agonist stimulation and its maximum after the stimulation. The value of IC50 was derived from percentage of inhibition by the test compound compared with the control.

Series [5] in a line: Stability test in Japanese Pharmacopoeia 1 solution (Test Example [4]). In kind it is physicochemical. The conditions noted are these: for remaining ratio in Japanese Pharmacopoeia 1 solution: CH3CN : Japanese Pharmacopoeia 1 solution 3:7, 0.05 mM, 40° C., after 8 hours vs 0 hour. The method, then:
The test compound was dissolved in a mixed solution of CH3CN and Japanese Pharmacopoeia 1 solution (volume ratio 3:7) and adjusted in a vial for HPLC to a concentration of 0.05 mM. The test compound was measured by HPLC at 40° C. after 0 and 8 hours. The measurement value on 0 hour was defined as 100% to determine the remaining ratio of the test compound after 8 hours.
The “Japanese Pharmacopoeia 1 solution” here represents a solution in which 21 ml of concentrated hydrochloric acid was added to 6 g of sodium chloride and further adjusted to 3 L with distilled water.

Where [6] appears, read: apical (pH 6.5) to basolateral (pH 7.4, 4.5% BSA), 25 μM, 37° C., read-out: membrane permeability Papp.
[7] abbreviates: compared with the compound of Comparative Example 8.
[8] abbreviates: apical to basolateral, read-out: membrane permeability in terms of the Papp values.

Read-outs that look alike come from different tables or passages of the source. Some results are limits rather than exact numbers.

T1 sequence (Q8NER1 whole entry): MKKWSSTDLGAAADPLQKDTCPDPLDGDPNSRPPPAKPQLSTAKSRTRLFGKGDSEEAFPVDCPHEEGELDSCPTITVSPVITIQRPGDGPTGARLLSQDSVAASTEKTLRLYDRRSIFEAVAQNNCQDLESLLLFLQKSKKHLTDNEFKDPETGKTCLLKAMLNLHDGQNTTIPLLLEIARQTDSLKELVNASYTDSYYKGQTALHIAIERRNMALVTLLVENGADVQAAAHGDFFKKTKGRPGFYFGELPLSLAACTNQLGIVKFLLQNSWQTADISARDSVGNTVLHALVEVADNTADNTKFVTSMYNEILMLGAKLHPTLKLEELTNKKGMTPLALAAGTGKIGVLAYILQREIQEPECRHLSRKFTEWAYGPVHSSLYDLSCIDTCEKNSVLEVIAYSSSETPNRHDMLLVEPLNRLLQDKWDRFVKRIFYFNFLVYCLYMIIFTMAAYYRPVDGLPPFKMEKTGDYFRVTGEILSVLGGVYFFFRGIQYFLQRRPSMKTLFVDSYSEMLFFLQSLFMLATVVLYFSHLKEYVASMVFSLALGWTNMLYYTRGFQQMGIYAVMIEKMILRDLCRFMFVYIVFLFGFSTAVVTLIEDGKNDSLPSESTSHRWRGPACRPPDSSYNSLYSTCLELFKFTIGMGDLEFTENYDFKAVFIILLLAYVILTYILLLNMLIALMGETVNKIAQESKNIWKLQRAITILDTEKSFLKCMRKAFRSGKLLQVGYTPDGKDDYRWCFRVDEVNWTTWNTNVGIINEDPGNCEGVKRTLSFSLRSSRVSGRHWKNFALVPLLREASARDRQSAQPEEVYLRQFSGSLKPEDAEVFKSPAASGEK

A word on the IC50: it is the concentration that gives 50% inhibition. Regarding `Cc1ccc(N2c3cccc(C(=O)Nc4ccc(C(F)(F)F)nc4)c3OC[C@@H]2CO)nc1` [Comparative Example 8], in series [1], the “Human liver S9 remaining ratio” value is 62.9%. In addition, the “membrane permeability (in words)” value in series [2] was “high membrane permeability”. Further, the Papp A→B at 2 h, 25 μM in series [3] (setting [6]) is 43.1 ×10⁻⁶ cm/s. In addition, in series [4], the IC50 was 7 nM.

With `Cc1ccc(N2c3cccc(C(=O)Nc4ccc(OC(C)C)c(F)c4)c3OC[C@@H]2CO)nc1` [Comparative Example 11], the “Human liver S9 remaining ratio” value in series [1] was determined as 66.7%. For the same molecule, the “membrane permeability (in words)” value in series [2] is “high membrane permeability”. The Papp A→B at 2 h, 25 μM in series [3] (setting [6]) is 40.3 ×10⁻⁶ cm/s. The IC50 in series [4] came out at 0.36 nM.

With `Cc1ccc(N2c3cccc(C(=O)Nc4ccc(OC(C)(C)C)c(F)c4)c3OC[C@@H]2CO)nc1` [Comparative Example 13], the “Human liver S9 remaining ratio” value in series [1] was found to be 91.3%. Moreover, in series [1] (summary judgement), the “metabolic stability in human liver S9 (in words)” value is reported as “excellent metabolic stability”. In series [3] (setting [6]), the Papp A→B at 2 h, 25 μM came to 28.6 ×10⁻⁶ cm/s. For the same molecule, the “remaining ratio in Japanese Pharmacopoeia 1 solution” value in series [5] is reported as 62.1%. In addition, in series [5] (inferred from stability in Japanese Pharmacopoeia 1 solution), the “stability in gastric juice (in words)” value was “inferior stability in gastric juice”. Also, the IC50 in series [4] came to 0.12 nM.

With `Cc1ccc(N2c3cccc(C(=O)Nc4ccc(OCC(F)(F)F)nc4)c3OC[C@@H]2CO)nc1` [Example 1-6, (S)-4-(5-picoline-2-yl)-3-hydroxymethyl-N-[2-(2,2,2-trifluoroethyloxy)pyridine-5-yl]-3,4-dihydro-2H-benzo[1,4]oxazine-8-carboxamide], the “liver S9 remaining ratio relative to Comparative Example 8” value in series [1] (setting [7]) is recorded as “about 1.5 times”. The values for the Papp A→B at 2 h, 25 μM in series [3] (setting [6]) and in series [3] (setting [8]) were 37.5 ×10⁻⁶ cm/s and ≥ 30 ×10⁻⁶ cm/s, respectively. Further, the “remaining ratio in Japanese Pharmacopoeia 1 solution” value in series [5] was determined as 100%. Moreover, the “value of IC50 relative to Comparative Example 8” value in series [4] (setting [7]) was “about 50 times”. Also, the half-maximal inhibitory concentration (IC50) in series [4] is 0.15 nM.

In the case of `Cc1ccc(N2c3cccc(C(=O)Nc4cc(F)c(OCC(F)(F)F)c(F)c4)c3OC[C@@H]2CO)nc1` [Example 1-8, (S)-4-(5-picoline-2-yl)-3-hydroxymethyl-N-[3,5-difluoro-4-(2,2,2-trifluoroethoxy)phenyl]-3,4-dihydro-2H-benzo[1,4]oxazine-8-carboxamide], the Papp A→B at 2 h, 25 μM in series [3] (setting [6]) is 13.6 ×10⁻⁶ cm/s. Further, the “remaining ratio in Japanese Pharmacopoeia 1 solution” value in series [5] was 101%. Also, the IC50 in series [4] is 0.038 nM.

On to `Cc1ccc(N2c3cccc(C(=O)Nc4cc(F)c(OCC(C)(C)O)c(F)c4)c3OC[C@@H]2CO)nc1` [Example 1-9, (S)-4-(5-picoline-2-yl)-3-hydroxymethyl-N-[3,5-difluoro-4-(2-hydroxy-2-methylpropyloxy)phenyl]-3,4-dihydro-2H-benzo[1,4]oxazine-8-carboxamide], for which, in series [1], the “Human liver S9 remaining ratio” value came out at 77.3%. Besides, the values for the Papp A→B at 2 h, 25 μM in series [3] (setting [6]) and in series [3] (setting [8]) were 50.4 ×10⁻⁶ cm/s and ≥ 30 ×10⁻⁶ cm/s, respectively. Besides, the half-inhibitory concentration (IC50) in series [4] is 0.54 nM.
